Experimental data as given in US20130096160A1, “ARYLTHIAZOLYL PIPERIDINES AND RELATED COMPOUNDS AS MODULATORS OF SURVIVAL MOTOR NEURON (SMN) PROTEIN PRODUCTION” (Secretary, Department of Health and Human Services, priority 2010, published 2013).

Columns and labels:
SMN2-luciferase reporter = SMN2-luciferase reporter qHTS assay; format: cell-based, human; conditions: SMN2-luc reporter, FIG. 1
Outline: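 SMN2 exon-7 splicing firefly-luciferase reporter cell line, ~2000 cells/well in phenol-red-free DMEM with 10% serum, allowed to adhere 10–12 h, then exposed to compounds for 2 days at 37 C, 5% CO2. Seven-point five-fold dilution series (e.g. 50 μM to 3.2 nM), OneGlo luminescence read, curves fitted to Hill equation.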

CaCo-2 cells = test: in vitro; format: in vitro ADME
Method: CaCo-2 cells grown in tissue culture flasks are trypsinized, suspended in medium, and the suspensions are applied to wells of a collagen-coated BioCoat Cell Environment in 24-well format (BD Biosciences) at 24,500 cells per well. The cells are allowed to grow and differentiate for three weeks, feeding at 2-day intervals.
For Apical to Basolateral (A->B) permeability, the test agent is added at 50 μM to the apical (A) side and amount of permeation is determined on the basolateral (B) side; for Basolateral to Apical (B>A) permeability, the test agent is added at 50 μM to the B side and the amount of permeation is determine on the A side. The A-side buffer contains 100 μM Lucifer yellow dye, in Transport Buffer (1.98 g/L glucose in 10 mM HEPES, 1× Hank's Balanced Salt Solution) pH 6.5, and the B-side buffer is Transport Buffer, pH 7.4. CaCo-2 cells are incubated with these buffers for 2 h., and the receiver side buffer is removed for analysis by liquid chromatography-mass spectrometry (LC/MS/MS).
Additionally, several control compounds are tested in the identical assay.
To verify that CaCo-2 cell monolayers are properly formed, aliquots of the cell buffers are analyzed by fluorescence to determine the transport of the impermeable dye Lucifer Yellow.
Data are expressed as permeability (Papp): […]
where dQ/dt is the rate of permeation, C0 is the initial concentration of test agent, and A is the area of the monolayer.
In bidirectional permeability studies, the asymmetry index (AI) or efflux ratio is also calculated:
An AI>1 indicated a potential substrate for PGP or other active transporters.
Samples are analyzed by LC/MS/MS using either an Agilent 6410 mass spectrometer coupled with an Agilent 1200 high performance liquid chromatography (HPLC) and a CTC PAL chilled autosampler, all controlled by MassHunter software (Agilent), or an ABI2000 mass spectrometer coupled with an Agilent 1100 HPLC and a CTC PAL chilled autosampler, all controlled by Analyst software (ABI). After separation on a C18 reverse phase HPLC column (Agilent, Waters, or equivalent) using an acetonitrile-water gradient system, peaks are analyzed by mass spectrometry (MS) using electrospray ionization (ESI) in multiple reaction monitoring (MRM) mode.
The signal is optimized for each compound by ESI positive or negative ionization mode. A MS2 selected ion monitoring (SIM) scan is used to optimize the precursor ion and a product ion analysis is used to identify the best fragment for analysis and to optimize the collision energy.

Compound: NC(=O)C1CCN(c2nc(-c3ccc(Br)cc3)cs2)CC1 [MLS000698854]
- expression of SMN2 / levels of the full length SMN2 gene (in words) (SMN2-luciferase reporter): increases the expression of SMN2
- Caco-2 permeability (in words) (CaCo-2 cells): highly permeable
- Pgp substrate (in words) (CaCo-2 cells): no indication of being a Pgp substrate
- mean A->B Papp (CaCo-2 cells): 32.6 10^−6 cm s^−1
- mean B->A Papp (CaCo-2 cells): 12.0 10^−6 cm s^−1
